Consider 15 compounds from ChEMBL document CHEMBL5728996 (2022).

In assay [1] the target is T1, Adenosine receptor A1 (Homo sapiens, UniProt P30542).
T1 sequence (P30542 whole entry): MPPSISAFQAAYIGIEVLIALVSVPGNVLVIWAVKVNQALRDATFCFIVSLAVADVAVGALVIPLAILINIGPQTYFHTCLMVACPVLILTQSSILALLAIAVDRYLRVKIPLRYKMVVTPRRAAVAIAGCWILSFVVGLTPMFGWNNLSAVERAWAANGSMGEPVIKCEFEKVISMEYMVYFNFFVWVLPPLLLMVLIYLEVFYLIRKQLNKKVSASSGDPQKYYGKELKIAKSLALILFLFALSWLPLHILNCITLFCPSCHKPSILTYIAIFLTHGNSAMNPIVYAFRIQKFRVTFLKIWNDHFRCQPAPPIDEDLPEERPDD
The assay is described as follows: (§1) Activity Assay: Compounds (Adenosine Receptor modulators) and activity assay.

Assay [2] deals with T2, Adenosine receptor A3 (Homo sapiens, UniProt P0DMS8).
T2 sequence (P0DMS8 whole entry): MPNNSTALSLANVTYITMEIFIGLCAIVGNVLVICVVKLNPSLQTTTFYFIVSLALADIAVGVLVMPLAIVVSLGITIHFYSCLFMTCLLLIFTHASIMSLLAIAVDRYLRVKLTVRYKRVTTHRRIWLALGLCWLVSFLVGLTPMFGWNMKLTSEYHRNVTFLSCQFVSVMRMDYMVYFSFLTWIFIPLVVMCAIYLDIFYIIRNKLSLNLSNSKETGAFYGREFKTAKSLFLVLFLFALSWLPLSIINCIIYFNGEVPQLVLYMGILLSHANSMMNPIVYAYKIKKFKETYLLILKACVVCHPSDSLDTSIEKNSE
The description is as §1.

Assay [3] addresses T3, Adenosine receptor A2b (Homo sapiens, UniProt P29275).
T3 sequence (P29275 whole entry): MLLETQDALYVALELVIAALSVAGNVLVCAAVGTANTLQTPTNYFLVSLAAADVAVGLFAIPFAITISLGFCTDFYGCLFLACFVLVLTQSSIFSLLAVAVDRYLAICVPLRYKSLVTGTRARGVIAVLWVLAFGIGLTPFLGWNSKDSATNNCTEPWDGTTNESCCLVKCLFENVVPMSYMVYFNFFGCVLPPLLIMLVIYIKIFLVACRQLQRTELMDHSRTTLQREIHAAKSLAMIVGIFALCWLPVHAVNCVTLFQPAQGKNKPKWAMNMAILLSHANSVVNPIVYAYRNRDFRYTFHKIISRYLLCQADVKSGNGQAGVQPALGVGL
Described as §1.

Assay [4] addresses Adenosine receptor A2a (Homo sapiens, UniProt P29274). The description is as §1. It counts as single protein.

Chain of Adenosine receptor A2a (P29274 whole entry): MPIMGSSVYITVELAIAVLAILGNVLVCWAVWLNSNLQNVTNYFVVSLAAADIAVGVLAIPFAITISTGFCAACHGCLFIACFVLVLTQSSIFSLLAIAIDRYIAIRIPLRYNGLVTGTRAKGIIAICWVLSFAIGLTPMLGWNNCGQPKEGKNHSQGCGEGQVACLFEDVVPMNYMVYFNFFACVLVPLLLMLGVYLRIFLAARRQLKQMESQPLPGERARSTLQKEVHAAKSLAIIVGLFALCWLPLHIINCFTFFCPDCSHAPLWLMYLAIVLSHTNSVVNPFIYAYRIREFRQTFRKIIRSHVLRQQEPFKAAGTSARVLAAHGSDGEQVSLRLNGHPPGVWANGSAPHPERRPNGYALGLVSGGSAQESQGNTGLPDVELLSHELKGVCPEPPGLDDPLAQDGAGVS

`C[C@H](Nc1nc(C(=O)N[C@H]2CC[C@@H](O)C2)c2sccc2n1)c1ccccn1`: the IC50 was over 500 nM in assay [1], over 500 nM in assay [2] and under 10 nM in assay [3].

In the case of `COc1ccc(CNC(=O)c2nc(NCc3cncc(F)c3)nc3ccsc23)cn1`, the IC50 in assay [1] and in assay [2] was over 500 nM each time.

Consider `C[C@H](Nc1nc(C(=O)N2CC[C@@H](NC(=O)OC(C)(C)C)C2)c2sccc2n1)c1ccccn1`, for which the 50% inhibitory concentration (IC50) in assay [1] and in assay [2] was over 500 nM in each case.

Regarding `O=C(c1nc(NCc2cncc(F)c2)nc2ccsc12)N1CCCC1`, the half-maximal inhibitory concentration (IC50) is over 500 nM in assay [1], over 500 nM in assay [2] and under 10 nM in assay [3].

On to `C[C@H](Nc1nc(C(=O)N2CC(N)C2)c2sccc2n1)c1cncc(F)c1`, for which the half-inhibitory concentration (IC50) in assay [1], in assay [2] and in assay [4] was over 500 nM each time.

Regarding `CC(=O)Nc1ccc(CCNC(=O)c2nc(N[C@@H](C)c3cccnc3)nc3cc(C)sc23)cc1`, the IC50 in assay [1] and in assay [4] was over 500 nM each time.

Turning to `COCCN1CCC(CNC(=O)c2nc(N[C@@H](C)c3ccccn3)nc3ccsc23)CC1`, the IC50 in assay [3] and in assay [4] was over 500 nM in each case.

Regarding `CC(=O)Nc1ccc(CCNC(=O)c2nc(N[C@@H](C)c3cncc(F)c3)nc3ccsc23)cc1`, the IC50 in assay [1], in assay [2] and in assay [4] was over 500 nM throughout.

In assay [3], `CCC(Nc1nc(C(=O)NCc2ccc(OC)nc2)c2sccc2n1)c1cccnc1` (configuration not stated) displayed a concentration for half-maximal inhibition (IC50) of over 500 nM.

In turn, `C[C@H](Nc1nc(C(=O)N2CC[C@@H](S(C)(=O)=O)C2)c2sccc2n1)c1ccccn1` yielded an IC50 in assay [4] of over 500 nM.

In assay [3], `C[C@H](Nc1nc(C(=O)NCCc2ccccc2O)c2sccc2n1)c1cncc(F)c1` registered an IC50 of under 10 nM.

On to `C[C@H](Nc1nc(C(=O)N2CC(CN)C2)c2sccc2n1)c1cncc(F)c1`, for which the IC50 in assay [1], in assay [2] and in assay [4] was over 500 nM each time.

Regarding `C[C@H](Nc1nc(C(=O)NCCO)c2sccc2n1)c1cccnc1`, the IC50 in assay [1] and in assay [2] was over 500 nM throughout.

As for `CC(C)(C)OC(=O)N1CCC[C@@H]1CNC(=O)c1nc(NCc2cncc(F)c2)nc2ccsc12`, the IC50 in assay [3] and in assay [4] was over 500 nM in each case.

On to `O=C(c1nc(NCc2ccc(F)cn2)nc2ccsc12)N1CC[C@H](O)C1`, for which the half-inhibitory concentration (IC50) in assay [3] and in assay [4] was over 500 nM each time.
